Among the data in PubChem BioAssay AID1259407 (Chemical Carcinogenesis Research Information System (CCRIS), 2018) are mutagenic call values, retold here.

Active and inactive are the calls of the source. No rule for the calls is given here.

The test system of this series is CCRIS mutagenicity, Ames/micronucleus/aberration tests. In words: CCRIS mutagenicity studies.
Setting [1] is: Test System: AMES SALMONELLA TYPHIMURIUM, Strain/Indicator: TA98, Metabolic Activation: NONE, Method: PREINCUBATION
The mark [2] stands for this setting: Test System: AMES SALMONELLA TYPHIMURIUM, Strain/Indicator: TA100, Metabolic Activation: NONE, Method: PREINCUBATION
[3] abbreviates: Test System: AMES SALMONELLA TYPHIMURIUM, Strain/Indicator: TA1535, Metabolic Activation: NONE, Method: PREINCUBATION

`O=[N+]([O-])c1cccc2nscc12`: the mutagenic call was “active; positive” (Test System: AMES SALMONELLA TYPHIMURIUM, Strain/Indicator: TA98, Metabolic Activation: NONE, Method: STANDARD PLATE); “active; positive” (Test System: AMES SALMONELLA TYPHIMURIUM, Strain/Indicator: TA98, Metabolic Activation: S-9, Method: STANDARD PLATE); “active; positive” (Test System: AMES SALMONELLA TYPHIMURIUM, Strain/Indicator: TA100, Metabolic Activation: NONE, Method: STANDARD PLATE); “active; positive” (Test System: AMES SALMONELLA TYPHIMURIUM, Strain/Indicator: TA100, Metabolic Activation: S-9, Method: STANDARD PLATE (TEST MATERIAL SOLVENT:DMSO)); “active; positive” (Test System: AMES SALMONELLA TYPHIMURIUM, Strain/Indicator: TA1535, Metabolic Activation: NONE, Method: STANDARD PLATE); “inactive; negative” (Test System: AMES SALMONELLA TYPHIMURIUM, Strain/Indicator: TA1535, Metabolic Activation: S-9, Method: STANDARD PLATE). Moreover, the mutagenic call by setting is: (Test System: AMES SALMONELLA TYPHIMURIUM, Strain/Indicator: TA1537, Metabolic Activation: NONE, Method: STANDARD PLATE) “active; positive”; (Test System: AMES SALMONELLA TYPHIMURIUM, Strain/Indicator: TA1537, Metabolic Activation: S-9, Method: STANDARD PLATE) “inactive; negative”.

On to `CC(=O)Nc1ccccc1`, for which the mutagenic call is, setting by setting: (Test System: AMES SALMONELLA TYPHIMURIUM, Strain/Indicator: TA97, Metabolic Activation: HAMSTER, LIVER, S-9, AROCLOR 1254 (10 OR 30%), Method: PREINCUBATION) “inactive; negative”; (Test System: AMES SALMONELLA TYPHIMURIUM, Strain/Indicator: TA97, Metabolic Activation: NONE, Method: PREINCUBATION) “inactive; negative”; (Test System: AMES SALMONELLA TYPHIMURIUM, Strain/Indicator: TA97, Metabolic Activation: RAT, LIVER, S-9, AROCLOR 1254 (10 OR 30%), Method: PREINCUBATION) “inactive; negative”; (Test System: AMES SALMONELLA TYPHIMURIUM, Strain/Indicator: TA98, Metabolic Activation: GUINEA PIG, LIVER, S-9, PCB, Method: PREINCUBATION) “inactive; negative”; (Test System: AMES SALMONELLA TYPHIMURIUM, Strain/Indicator: TA98, Metabolic Activation: HAMSTER, LIVER, S-9, AROCLOR 1254 (10 OR 30%), Method: PREINCUBATION) “inactive; negative”; (Test System: AMES SALMONELLA TYPHIMURIUM, Strain/Indicator: TA98, Metabolic Activation: HAMSTER, LIVER, S-9, PCB, Method: PREINCUBATION) “inactive; negative”. Also, the mutagenic call was “inactive; negative” (Test System: AMES SALMONELLA TYPHIMURIUM, Strain/Indicator: TA98, Metabolic Activation: MOUSE, LIVER, S-9, PCB, Method: PREINCUBATION); “inactive; negative” under setting [1]; “inactive; negative” (Test System: AMES SALMONELLA TYPHIMURIUM, Strain/Indicator: TA98, Metabolic Activation: RAT, LIVER, S-9, AROCLOR 1254 (10 OR 30%), Method: PREINCUBATION); “inactive; negative” (Test System: AMES SALMONELLA TYPHIMURIUM, Strain/Indicator: TA98, Metabolic Activation: RAT, LIVER, S-9, PCB, Method: PREINCUBATION); “inactive; negative” (Test System: AMES SALMONELLA TYPHIMURIUM, Strain/Indicator: TA100, Metabolic Activation: GUINEA PIG, LIVER, S-9, PCB, Method: PREINCUBATION); “inactive; negative” (Test System: AMES SALMONELLA TYPHIMURIUM, Strain/Indicator: TA100, Metabolic Activation: HAMSTER, LIVER, S-9, AROCLOR 1254 (10 OR 30%), Method: PREINCUBATION). In addition, the mutagenic call was “inactive; negative” (Test System: AMES SALMONELLA TYPHIMURIUM, Strain/Indicator: TA100, Metabolic Activation: HAMSTER, LIVER, S-9, PCB, Method: PREINCUBATION); “inactive; negative” (Test System: AMES SALMONELLA TYPHIMURIUM, Strain/Indicator: TA100, Metabolic Activation: MOUSE, LIVER, S-9, PCB, Method: PREINCUBATION); “inactive; negative” under setting [2]; “inactive; negative” (Test System: AMES SALMONELLA TYPHIMURIUM, Strain/Indicator: TA100, Metabolic Activation: RAT, LIVER, S-9, AROCLOR 1254 (10 OR 30%), Method: PREINCUBATION); “inactive; negative” (Test System: AMES SALMONELLA TYPHIMURIUM, Strain/Indicator: TA100, Metabolic Activation: RAT, LIVER, S-9, PCB, Method: PREINCUBATION); “inactive; negative” (Test System: AMES SALMONELLA TYPHIMURIUM, Strain/Indicator: TA1535, Metabolic Activation: HAMSTER, LIVER, S-9, AROCLOR 1254 (10 OR 30%), Method: PREINCUBATION). Further, the mutagenic call runs as follows: under setting [3], “inactive; negative”; (Test System: AMES SALMONELLA TYPHIMURIUM, Strain/Indicator: TA1535, Metabolic Activation: RAT, LIVER, S-9, AROCLOR 1254 (10 OR 30%), Method: PREINCUBATION) “inactive; negative”.

For `Cc1cc(-c2ccc(N/N=C3\C(=O)c4c(O)cc(S(=O)(=O)O)cc4C=C3S(=O)(=O)O)c(C)c2)ccc1N/N=C1\C(=O)c2c(O)cc(S(=O)(=O)O)cc2C=C1S(=O)(=O)O`, the mutagenic call reads like this: (Test System: AMES SALMONELLA TYPHIMURIUM, Strain/Indicator: TA98, Metabolic Activation: HAMSTER, LIVER, S-9, AROCLOR 1254 (10%), Method: PREINCUBATION) “inactive; negative”; under setting [1], “inactive; negative”; (Test System: AMES SALMONELLA TYPHIMURIUM, Strain/Indicator: TA98, Metabolic Activation: RAT, LIVER, S-9, AROCLOR 1254 (10%), Method: PREINCUBATION) “inactive; negative”; (Test System: AMES SALMONELLA TYPHIMURIUM, Strain/Indicator: TA100, Metabolic Activation: HAMSTER, LIVER, S-9, AROCLOR 1254 (10%), Method: PREINCUBATION) “inactive; negative”; under setting [2], “inactive; negative”; (Test System: AMES SALMONELLA TYPHIMURIUM, Strain/Indicator: TA100, Metabolic Activation: RAT, LIVER, S-9, AROCLOR 1254 (10%), Method: PREINCUBATION) “inactive; negative”. In addition, the mutagenic call is “inactive; negative” (Test System: AMES SALMONELLA TYPHIMURIUM, Strain/Indicator: TA1535, Metabolic Activation: HAMSTER, LIVER, S-9, AROCLOR 1254 (10%), Method: PREINCUBATION); “inactive; negative” under setting [3]; “inactive; negative” (Test System: AMES SALMONELLA TYPHIMURIUM, Strain/Indicator: TA1535, Metabolic Activation: RAT, LIVER, S-9, AROCLOR 1254 (10%), Method: PREINCUBATION); “inactive; negative” (Test System: AMES SALMONELLA TYPHIMURIUM, Strain/Indicator: TA1537, Metabolic Activation: HAMSTER, LIVER, S-9, AROCLOR 1254 (10%), Method: PREINCUBATION); “inactive; negative” (Test System: AMES SALMONELLA TYPHIMURIUM, Strain/Indicator: TA1537, Metabolic Activation: NONE, Method: PREINCUBATION); “inactive; negative” (Test System: AMES SALMONELLA TYPHIMURIUM, Strain/Indicator: TA1537, Metabolic Activation: RAT, LIVER, S-9, AROCLOR 1254 (10%), Method: PREINCUBATION). Besides, where the note is “Test System: AMES SALMONELLA TYPHIMURIUM, Strain/Indicator: TA1538, Metabolic Activation: RAT, LIVER, S-9, AROCLOR 1254, Method: STANDARD PLATE”, the mutagenic call was “inactive; negative”.

On to `CNC(=O)Oc1ccccc1`, for which the mutagenic call is “inactive; negative” (Test System: AMES SALMONELLA TYPHIMURIUM, Strain/Indicator: TA98, Metabolic Activation: RAT, LIVER, S-9, AROCLOR 1254, Method: STANDARD PLATE) and “inactive; negative” (Test System: AMES SALMONELLA TYPHIMURIUM, Strain/Indicator: TA1535, Metabolic Activation: RAT, LIVER, S-9, AROCLOR 1254, Method: STANDARD PLATE).

On to `COc1c(O)c(Cl)c(Cl)c(Cl)c1Cl`, for which, where the note is “Test System: CHINESE HAMSTER V-79, Strain/Indicator: V-79/6-THIOGUANINE, Metabolic Activation: NONE, Method: STANDARD PLATE”, the mutagenic call is “inactive; negative”.
